Results on 5 compounds are retold here after US20160128321A1, “Ladder-Frame Polyether Conjugates” (priority 2010, published 2016).

One data set has as its system NL20. Further details: key to the marks not given beside the values.
For another data set, the system named is MDCK. Further details: key to the marks not given beside the values.
The test system of another data set is MCF7. Also noted: key to the marks not given beside the values.
The next data set has as its system rat brain synaptosomes. The experiment in a line: Receptor binding assays.
Setting [1] is: SJCRH30 cells, 400 nM, 1 hour at 37° C., 20× objective, Example 15C.

Read-outs that look alike come from different tables or passages of the source.

For the compound `Cc1cc(C)n2c1C=C1C=CC(CCC(=O)NN)=[N+]1[B-]2(F)F` [BODIPY ®, 4,4-difluoro-5,7-dimethyl-4-bora-3a,4a-diaza-s-indacene-3-propionic acid, hydrazide], the level of fluorescence entry is on record as “−” with A549; “−” in the data set on CHO-K1; “++” in the data set on NL20; “+” with T47D; “++” in the data set with MDCK; “+” in the data set on SJCRH30. The level of fluorescence result in the data set with DMS-114 was “−”; in the data set on 184B5, “+”; in the data set on BT549, “+”; with HEK293 it was “−”; in the data set on MCF7, “++”.

In the case of `COc1cccc2c1C(=O)c1c(O)c3c(c(O)c1C2=O)C[C@@](O)(C(C)=O)C[C@@H]3O[C@H]1C[C@H](N)[C@H](O)[C@H](C)O1` [Daunorubicin], the level of fluorescence result in the data set with SJCRH30 (setting [1]) was “−”.

Take `CN(C)c1ccc2c(-c3cc(C(=O)[O-])ccc3C(=O)O)c3ccc(=[N+](C)C)cc-3oc2c1` [Example 6-TAMRA, 6-carboxytetramethylrhodamine]: in the data set on SJCRH30 (setting [1]), the level of fluorescence result is on record as “−”.

As to `C=C/C=C\CC[C@H]1O[C@H]2CC[C@@]3(C)O[C@H]4[C@@H](O)C[C@@]5(C)O[C@@H](CC/C=C(C)/C(C)=C/C=O)[C@@H](C)C[C@H]5O[C@@H]4C[C@@H]3O[C@@H]2CC[C@@]1(C)O` [brevenal], the “affinity (binding to rat brain synaptosomes)” value with rat brain synaptosomes (parent compound, first value printed for brevenal) lay in the range of 400 to 800 nM.

Consider `C=C(C=O)C[C@@H]1C[C@H](O)[C@]2(C)O[C@@H]3C[C@@H]4O[C@@H]5C[C@]6(C)O[C@]7(C)CC[C@@H]8O[C@@H]9C[C@]%10(C)O[C@@H]%11C(C)=CC(=O)O[C@H]%11C[C@H]%10O[C@H]9C[C@@H](C)[C@H]8O[C@H]7C[C@H]6O[C@H]5C/C=C\[C@H]4O[C@H]3C[C@H]2O1` [brevetoxin], for which the “affinity (binding to rat brain synaptosomes)” value with rat brain synaptosomes is 2-10 nm.
